Tests used:
[1] = test system: MCF-7 cells; assay: Cell uptake of [^18F]1 in MCF-7 cells after 21 h pretreatment; format: cell-based, human; settings: MCF-7 cells
Description: (§1) The ability of [^18F]1 to bind to MDM2 expressing human tumor cells was assessed using two wild-type p53 cell lines, MCF-7 breast adenocarcinoma, and HepG2 hepatocellular carcinoma. These cell lines have significant MDM2 expression levels and have been utilized previously for assessing potential MDM2 inhibitors, including SP-141 [12, 24, 25]. […] Thus, to examine the uptake and specificity of [^18F]1 by MDM2 expressing tumor cell lines, MCF-7 and HepG2 cells were treated with 0, 1, 5, or 10 µM SP-141 for 21 h, and then assessed for [^18F]1 uptake for 1 h.
(§2) Cell uptake studies of [^18F]1 were conducted using MCF-7 and HepG2 cell lines. Briefly, cells plated in 24-well plates (200,000/well) were treated with varying concentrations of SP-141 (1, 5, or 10 µM) or vehicle for 21 h and incubated with a fresh medium containing [^18F]1 (~18.5 kBq in 0.5 mL medium) for 1 h. Next, the incubation medium was removed, cells were rinsed with cold PBS (3 × 0.5 mL) and lysed using Cell Culture Lysis Reagent (0.25 mL, Promega Corporation, Madison, WI, USA) followed by a rinse with PBS (0.125 mL/well). For each well, the supernatant, PBS washes, and the cell lysate were measured for radioactivity in an automated gamma counter (Wallac Wizard™, Perkin Elmer, Waltham, MA, USA). Subsequently, cell lysates were analyzed for protein concentration using the Bradford assay (Bio-Rad, Hercules, CA, USA). Cell uptake for each well was normalized to its protein content and expressed as % uptake/mg protein. Results are presented as mean ± SD for three wells.

[2] = test system: HepG2 cells; assay: Cell uptake of [^18F]1 in HepG2 cells after 21 h pretreatment; format: cell-based, human; settings: HepG2 cells
Description: as §1
as §2, with “Briefly, cells plated in 24-well plates (200,000/well) were treated with varying concentrations of SP-141 (1, 5, or 10 µM) or vehicle for 21 h and incubated with a fresh medium containing [^18F]1 (~18.5 kBq in 0.5 mL medium) for 1 h.” left out

[3] = test system: MDM2 gene expression; settings: AML patients, peripheral blasts, after 10 days of treatment; cited from earlier work
[4] = test system: MCF-7 xenograft; parameters: method as in PMID 25271708, PMID 31832522, PMID 29354330; settings: 40 mg/kg i.p., 5 days a week, cited from earlier work
[5] = test system: HepG2 cells; parameters: method as in PMID 25271708, PMID 31832522; settings: 0.5–1.0 µM for 24 h; cited from earlier work
[6] = test system: HepG2 cells; assay: [^18F]1 uptake with or without co-incubated 100 µM SP-141, HepG2; format: cell-based, human; settings: 100 µM SP-141 co-incubation, 15 min
Description: (§3) Because MDM2 is a transcriptional target of p53, stabilization of p53 levels after MDM2 inhibition with SP-141 is expected to cause a temporary increase in MDM2 protein expression via the autoregulatory loop. Thus, we hypothesized that treatment of tumor cells with high concentrations of SP-141 for shorter periods (e.g., <4 h) might induce MDM2 expression as a consequence of p53 activation, whereas low concentrations of SP-141 (≤1 µM) and longer incubation times (≥20 h) appear to promote MDM2 degradation in vitro. To investigate this, MCF-7 and HepG2 cells were incubated with or without 100 µM SP-141 for 15–120 min, and uptake was measured as a percentage input dose for each time point. Hep3B, a p53 null cell line, was used as a negative control. […]
(§4) For these studies, MCF-7 (WT-p53), HepG2 (WT-p53), and Hep3B (p53 null) cells were plated in 24-well plates (20,000/well) and incubated with [^18F]1 (~18.5 kBq in 0.5 mL) with or without 100 µM SP-141 for 15–120 min under standard cell culture conditions. […] The radioactivity in supernatants, wash fractions, and cell lysates was counted for each well using the gamma counter (Wallac Wizard). Cell uptake was calculated as the percentage of the input dose for the two treatment conditions (with/without 100 µM SP-141).

[7] = test system: Hep3B cells; assay: [^18F]1 uptake with or without co-incubated 100 µM SP-141, Hep3B; format: cell-based, human; settings: Hep3B (p53 null) cells, 100 µM SP-141 co-incubation, 15-120 min
Description: as §3, §4

[8] = test system: MCF-7 cells; assay: [^18F]1 uptake with or without co-incubated 100 µM SP-141, MCF-7; format: cell-based, human; settings: 100 µM SP-141 co-incubation, 15 min
Description: as §3, §4

[9] = target: MDM2; settings: read-out: Binding affinity determined by SPR analysis; cited from earlier work
[10] = target: MDM2 protein; parameters: method as in PMID 25271708; settings: read-out: Binding affinity (Ki); cited from earlier work
[11] = test system: MCF-7 cells; parameters: method as in PMID 25271708, PMID 31832522; settings: 0.5–1.0 µM for 24 h; cited from earlier work
[12] = test system: HepG2 xenograft; parameters: method as in PMID 25271708, PMID 31832522, PMID 29354330; settings: 40 mg/kg i.p., 5 days a week, cited from earlier work

COc1ccc(C2=N[C@@H](c3ccc(Cl)cc3)[C@@H](c3ccc(Cl)cc3)N2C(=O)N2CCNC(=O)C2)c(OC(C)C)c1 [Nutlin-3, reference compound]
Change of [^18F]1 uptake after pretreatment ([1]; 1 and 5 µM Nutlin-3, 21 h): significant increases
Inhibitory effect of pretreatment on [^18F]1 uptake ([1]; Nutlin-3 1-10 µM for 21 h): did not show any inhibitory effects
Change of [^18F]1 uptake after pretreatment ([2]; 10 µM Nutlin-3, 21 h): significant increases
Inhibitory effect of pretreatment on [^18F]1 uptake ([2]; Nutlin-3 1-10 µM for 21 h): did not show any inhibitory effects

CCOc1cc(C(C)(C)C)ccc1C1=N[C@@](C)(c2ccc(Cl)cc2)[C@@](C)(c2ccc(Cl)cc2)N1C(=O)N1CCN(CCCS(C)(=O)=O)CC1 [RG7112]
Increase in median MDM2 gene expression levels [3]: 2.8 fold

COc1ccc2[nH]c3c(-c4cccc5ccccc45)nccc3c2c1 [SP-141, 6-Methoxy-1-(naphthalen-1-yl)-9H-pyrido[3,4-b]indole]
Tumor growth ([4]; after 42 days): inhibited tumor growth significantly
MDM2 levels in tumors [4]: decreased MDM2 levels in tumors
Decrease of [^18F]1 uptake compared to vehicle-treated cells ([1]; 1 µM SP-141 for 21 h): 76%
Cellular MDM2 levels [5]: decreases cellular MDM2 levels
Increase of [^18F]1 uptake compared to cells incubated with only [^18F]1 [6]: 1.4 fold
Effect of SP-141 pretreatment on [^18F]1 uptake ([2]; 10 µM SP-141 for 21 h): no noticeable effects
Effect of SP-141 on [^18F]1 uptake [7]: no effect
Increase of [^18F]1 uptake compared to cells incubated with only [^18F]1 [8]: 1.2 fold
Kd [9]: 43 nM
Ki [10]: 28 ± 6 nM
Cellular MDM2 levels [11]: decreases cellular MDM2 levels
Tumor growth ([12]; after 20 days): inhibited tumor growth significantly
MDM2 levels in tumors [12]: decreased MDM2 levels in tumors

From paper PMC8070256, “Feasibility of Developing Radiotracers for MDM2: Synthesis and Preliminary Evaluation of an ^18F-Labeled Analogue of the MDM2 Inhibitor SP-141” (Pharmaceuticals, 2021)
